Target: T1, h-GABAA α2β2γ1 (Homo sapiens, UniProt P47869+Q8N1C3)
T1 sequence (P47869 29-451): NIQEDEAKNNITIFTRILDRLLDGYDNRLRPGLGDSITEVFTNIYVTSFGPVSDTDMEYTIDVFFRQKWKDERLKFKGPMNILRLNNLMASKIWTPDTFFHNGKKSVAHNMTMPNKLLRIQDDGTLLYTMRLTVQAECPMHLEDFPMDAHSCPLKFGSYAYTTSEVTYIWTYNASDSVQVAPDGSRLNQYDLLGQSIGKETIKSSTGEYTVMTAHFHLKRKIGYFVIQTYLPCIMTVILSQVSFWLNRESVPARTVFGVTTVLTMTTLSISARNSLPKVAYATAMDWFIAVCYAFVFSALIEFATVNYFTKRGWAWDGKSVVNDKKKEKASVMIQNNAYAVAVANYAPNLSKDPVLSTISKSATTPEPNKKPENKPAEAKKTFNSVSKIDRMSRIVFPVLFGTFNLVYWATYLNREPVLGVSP
T1 sequence (P47870 25-512 partner limits assumed): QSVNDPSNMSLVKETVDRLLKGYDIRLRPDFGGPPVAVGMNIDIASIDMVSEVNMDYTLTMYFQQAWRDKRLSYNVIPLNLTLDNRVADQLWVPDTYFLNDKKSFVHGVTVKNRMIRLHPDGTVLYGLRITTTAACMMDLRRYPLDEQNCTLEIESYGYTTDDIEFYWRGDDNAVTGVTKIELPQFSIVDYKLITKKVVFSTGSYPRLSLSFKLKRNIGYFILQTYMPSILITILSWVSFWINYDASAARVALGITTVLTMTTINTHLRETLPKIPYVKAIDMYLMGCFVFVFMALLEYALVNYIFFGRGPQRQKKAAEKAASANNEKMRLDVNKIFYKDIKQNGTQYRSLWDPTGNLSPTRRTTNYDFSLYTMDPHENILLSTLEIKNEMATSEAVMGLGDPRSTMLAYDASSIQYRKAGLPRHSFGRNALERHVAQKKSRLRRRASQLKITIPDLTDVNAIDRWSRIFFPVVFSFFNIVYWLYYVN
T1 sequence (Q8N1C3 36-465): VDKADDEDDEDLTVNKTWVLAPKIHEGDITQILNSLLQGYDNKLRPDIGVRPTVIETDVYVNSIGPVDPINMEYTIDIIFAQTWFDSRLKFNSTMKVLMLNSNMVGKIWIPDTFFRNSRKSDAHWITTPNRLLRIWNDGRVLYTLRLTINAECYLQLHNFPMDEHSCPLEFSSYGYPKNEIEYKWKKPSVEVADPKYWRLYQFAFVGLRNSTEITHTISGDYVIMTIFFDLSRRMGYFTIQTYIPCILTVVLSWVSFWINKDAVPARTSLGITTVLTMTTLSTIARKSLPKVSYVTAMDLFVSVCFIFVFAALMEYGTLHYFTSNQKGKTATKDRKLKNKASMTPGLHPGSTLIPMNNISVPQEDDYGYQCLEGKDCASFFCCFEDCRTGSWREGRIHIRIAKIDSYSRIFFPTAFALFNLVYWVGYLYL
Test: Two-electrode voltage clamp electrophysiology in Xenopus oocytes, modulation of GABA EC20 current
Type: cell-based
Parameters: host or cells: Xenopus laevis oocytes, RNA micro-injection
Conditions: Table 2; for Efficacy (GABA)%: % modulation of GABA EC20 = 100*(Fold increase−1), compound at approx. 30-fold Ki; for Fold increase h-GABA-A α2β2γ1 oocyte @ 30-fold Ki: compound at approx. 30-fold its Ki α2β2γ1, GABA EC20, Xenopus oocytes
Experimental: Xenopus laevis oocytes at maturation stages V-VJ were used for the expression of cloned mRNA encoding GABAA receptor subunits. Oocytes ready for RNA micro-injection were bought from Ecocyte, Castrop-Rauxel, Germany and stored in modified Barth's medium (composition in mM: NaCl 88, KCl 1, NaHCO3 2.4, HEPES 10, MgSO4 0.82, CaNO3 0.33, CaCl2 0.33, pH=7.5) at 20° C. until the experiment.
Oocytes were plated in 96-well plates for microinjection using the Roboinject automated instrument (MultiChannelSystems, Reutlingen, Germany). Approximately 50 nL of an aqueous solution containing the RNA transcripts for the subunits of the desired GABAA receptor subtype was injected into each oocyte. […] Oocytes were kept in modified Barth's medium (composition in mM: NaCl 88, KCl 1, NaHCO3 […], HEPES 10, MgSO4 0.82, CaNO3 0.33, CaCl2 0.33, pH=7.5) at 20° C. until the experiment.
Electrophysiological experiments were performed using the Roboocyte instrument (MultiChannelSystems, Reutlingen, Germany) on days 3 to 5 after the micro-injection of mRNA. During the experiment the oocytes were constantly superfused by a solution containing (in mM) NaCl 90, KCl 1, HEPES 5, MgCl2 1, CaCl2 1 (pH 7.4). Oocytes were impaled by two glass microelectrodes (resistance: 0.5-0.8 MΩ) which were filled with a solution containing KCl 1M+K-acetate 1.5 M and voltage-clamped to −80 mV. The recordings were performed at room temperature using the Roboocyte two-electrode voltage clamp system (Multichannelsystem). After an initial equilibration period of 1.5 min GABA was added for 1.5 min at a concentration evoking approximately 20% of a maximal current response (EC20). After another rest interval of 2.5 min GABA was again added evoking a response of similar amplitude and shape. […] Current traces were recorded at a digitization rate of 10 Hz during and shortly before and after the GABA application.
Each compound and concentration was tested on at least 3 oocytes. Different oocytes were used for different compound concentrations.
For the analysis, the digitized current traces of the first and second GABA response were superimposed and, if necessary, rescaled to equal maximal amplitudes. The ratio between the two responses during the time interval of test compound application was calculated point by point. The extremum of the resulting “ratio trace” was taken as the efficacy (“Fold increase”) of the compound expressed as “% modulation of GABA EC20” (100*(Fold increase−1)).

| Compound | Efficacy (GABA)% | Fold increase h-GABA-A α2β2γ1 oocyte @ 30-fold Ki |
| --- | --- | --- |
| Cc1nnc2n1-c1ccc(Br)c(Cl)c1C(c1c(F)cccc1F)=NC2 [Example 1, 8-bromo-7-chloro-6-(2,6-difluorophenyl)-1-methyl-4H-[1,2,4]triazolo[4,3-a][1,4]benzodiazepine] | 77% | 1.77 |
| Fc1ccccc1C1=NCc2nnc(C3CC3)n2-c2ccc(Br)c(Cl)c21 [Example 2, 8-bromo-7-chloro-1-cyclopropyl-6-(2-fluorophenyl)-4H-[1,2,4]triazolo[4,3-a][1,4]benzodiazepine] | 84% | 1.84 |
| Fc1ccccc1C1=NCc2nnc(-c3cccnn3)n2-c2ccc(Br)c(Cl)c21 [Example 3, 8-bromo-7-chloro-6-(2-fluorophenyl)-1-pyridazin-3-yl-4H-[1,2,4]triazolo[4,3-a][1,4]benzodiazepine] | 113% | 2.13 |
| Cc1nnc2n1-c1ccc(Cl)c(Cl)c1C(c1ccccc1F)=NC2 [Example 4, 7,8-dichloro-6-(2-fluorophenyl)-1-methyl-4H-[1,2,4]triazolo[4,3-a][1,4]benzodiazepine] | 73% | 1.73 |
| Cc1nnc2n1-c1ccc(Cl)c(Cl)c1C(c1c(F)cccc1F)=NC2 [Example 5, 7,8-dichloro-6-(2,6-difluorophenyl)-1-methyl-4H-[1,2,4]triazolo[4,3-a][1,4]benzodiazepine] | 57% | 1.57 |
| Cc1nnc2n1-c1ccc(C3CC3)c(Cl)c1C(c1c(F)cccc1F)=NC2 [Example 6, 7-chloro-8-cyclopropyl-6-(2,6-difluorophenyl)-1-methyl-4H-[1,2,4]triazolo[4,3-a][1,4]benzodiazepine] | 106% | 2.06 |
| Fc1cccc(F)c1C1=NCc2nncn2-c2ccc(Br)c(Cl)c21 [Example 7, 8-bromo-7-chloro-6-(2,6-difluorophenyl)-4H-[1,2,4]triazolo[4,3-a][1,4]benzodiazepine] | 56% | 1.56 |
| Fc1ccccc1C1=NCc2nncn2-c2ccc(Br)c(Cl)c21 [Example 8, 8-bromo-7-chloro-6-(2-fluorophenyl)-4H-[1,2,4]triazolo[4,3-a][1,4]benzodiazepine] | 58% | 1.58 |
| O=c1[nH]nc2n1-c1ccc(Cl)c(Cl)c1C(c1c(F)cccc1F)=NC2 [Example 9, 7,8-dichloro-6-(2,6-difluorophenyl)-2,4-dihydro-[1,2,4]triazolo[4,3-a][1,4]benzodiazepin-1-one] | 72% | 1.72 |
| Fc1ccccc1C1=NCc2nnc(-c3cccnn3)n2-c2ccc(Cl)c(Cl)c21 [Example 10, 7,8-dichloro-6-(2-fluorophenyl)-1-pyridazin-3-yl-4H-[1,2,4]triazolo[4,3-a][1,4]benzodiazepine] | 69% | 1.69 |
| Fc1cccc(F)c1C1=NCc2nnc(C3CCOCC3)n2-c2ccc(Cl)c(Cl)c21 [Example 11, 7,8-dichloro-6-(2,6-difluorophenyl)-1-tetrahydropyran-4-yl-4H-[1,2,4]triazolo[4,3-a][1,4]benzodiazepine] | 60% | 1.60 |
| Fc1cccc(F)c1C1=NCc2nnc(-c3ccncn3)n2-c2ccc(Cl)c(Cl)c21 [Example 12, 7,8-dichloro-6-(2,6-difluorophenyl)-1-pyrimidin-4-yl-4H-[1,2,4]triazolo[4,3-a][1,4]benzodiazepine] | 49% | 1.49 |
| O=c1[nH]nc2n1-c1ccc(Br)c(Cl)c1C(c1c(F)cccc1F)=NC2 [Example 13, 8-bromo-7-chloro-6-(2,6-difluorophenyl)-2,4-dihydro-[1,2,4]triazolo[4,3-a][1,4]benzodiazepin-1-one] | 52% | 1.52 |
| Fc1cccc(F)c1C1=NCc2nnc(-c3cccnn3)n2-c2ccc(Cl)c(Cl)c21 [Example 14, 7,8-dichloro-6-(2,6-difluorophenyl)-1-pyridazin-3-yl-4H-[1,2,4]triazolo[4,3-a][1,4]benzodiazepine] | 71% | 1.71 |
| Fc1cccc(F)c1C1=NCc2nncn2-c2ccc(Cl)c(Cl)c21 [Example 15, 7,8-dichloro-6-(2,6-difluorophenyl)-4H-[1,2,4]triazolo[4,3-a][1,4]benzodiazepine] | 60% | 1.60 |
| Cc1ccc2c(c1Cl)C(c1c(F)cccc1F)=NCc1n[nH]c(=O)n1-2 [Example 16, 7-chloro-6-(2,6-difluorophenyl)-8-methyl-2,4-dihydro-[1,2,4]triazolo[4,3-a][1,4]benzodiazepin-1-one] | 68% | 1.68 |
| Cc1ccc2c(c1Cl)C(c1c(F)cccc1F)=NCc1nncn1-2 [Example 17, 7-chloro-6-(2,6-difluorophenyl)-8-methyl-4H-[1,2,4]triazolo[4,3-a][1,4]benzodiazepine] | 70% | 1.70 |
| Fc1ccccc1C1=NCc2nnc(-c3ccncn3)n2-c2ccc(Cl)c(Cl)c21 [Example 18, 7,8-dichloro-6-(2-fluorophenyl)-1-pyrimidin-4-yl-4H-[1,2,4]triazolo[4,3-a][1,4]benzodiazepine] | 70% | 1.70 |
| COCCc1nnc2n1-c1ccc(Cl)c(Cl)c1C(c1c(F)cccc1F)=NC2 [Example 19, 7,8-dichloro-6-(2,6-difluorophenyl)-1-(2-methoxyethyl)-4H-[1,2,4]triazolo[4,3-a][1,4]benzodiazepine] | 72% | 1.72 |
| Cc1ccc2c(c1Cl)C(c1c(F)cccc1F)=NCc1nnc(C)n1-2 [Example 20, 7-chloro-6-(2,6-difluorophenyl)-1,8-dimethyl-4H-[1,2,4]triazolo[4,3-a][1,4]benzodiazepine] | 57% | 1.57 |
